Test results taken from patent publication US20230090337A1, “PHARMACEUTICAL FORMULATIONS COMPRISING 6-CHLORO-7-(4-(4-CHLOROBENZYL)PIPERAZIN-1 -YL)-2-(1,3-DIMETHYL-1 HPYRAZOL-4-YL)-3H- IMIDAZO[4,5-B]PYRIDINE” (ELLIPSES PHARMA LTD, priority 2020, published 2023).
Read-outs that look alike come from different tables or passages of the source. One block for each molecule: values may come before it.

Assays:
[1] = Solubility of the compound of Formula (1) in non-ionic surfactants; format: physicochemical; conditions: thermodynamic from solid
Experimental: Approximately 3 mg of the compound of Formula (1) (monofumarate) was weighed out into clean HLPC vials. Various non-ionic surfactants were added in 200 or 300 μL portions up to 1 ml in total. After each addition, the sample was with vortexed (2×30 seconds) sonicated for 6 minutes, and once 1 ml total had been added the sample was kept in an oven at 45° C. for 40 minutes before being cooled to RT to aid dissolution. Observations are provided below:
Those excipients that have a melting point above ambient temperature were heated to above their melting point (e.g. 50° C.-70° C.) and observations were made in the liquid phase.

[2] = Aqueous solubility of salt versus free base; format: physicochemical
[3] = Stability / hygroscopicity of salts; format: physicochemical; conditions: e.g. due to lower hygroscopicity
[4] = Excipient solubilising ability (20% w/v aqueous excipient solutions, DMSO spike, observed for precipitation); format: physicochemical; conditions: for solubility: aqueous with cosolvent or surfactant or cyclodextrin, kinetic from dmso stock
Experimental: Promising non-ionic surfactants were further tested. Each was prepared as a 20% w/v aqueous solution.
The excipients tested were (HLB): Cremophor EL (12-14); Cremophor RH 40 (14-16); Labrasol ALF; Solutol HS15 (˜16); Poloxamer P124 (12-18); TPGS (˜13); and Gelucire 44/14 (˜11).
Initially, the concentrated DMSO solution was prepared at 30 mg/mL to give a starting concentration of 3 mg/mL of the compound of Formula (1) in the aqueous vehicle, and the concentration was reduced until a semi-solid excipient was identified which maintained a clear solution of the compound. No excipients solubilised the compound at concentrations >1.5 mg/mL in this experiment, but TPGS unexpectedly performed best—solubilising the compound at a concentration of 1.5 mg/mL in the aqueous vehicle (e.g. 100 μL portion of a 15 mg/mL solution of the compound in DMSO was added to each excipient solution to achieve the final concentration of 1.5 mg/mL). In TPGS the solution remained clear for up to 5 hours.

Aurora A = biological target: T1, Aurora A (Homo sapiens, UniProt O14965); conditions: cited from earlier work
T1 sequence (O14965 1-403): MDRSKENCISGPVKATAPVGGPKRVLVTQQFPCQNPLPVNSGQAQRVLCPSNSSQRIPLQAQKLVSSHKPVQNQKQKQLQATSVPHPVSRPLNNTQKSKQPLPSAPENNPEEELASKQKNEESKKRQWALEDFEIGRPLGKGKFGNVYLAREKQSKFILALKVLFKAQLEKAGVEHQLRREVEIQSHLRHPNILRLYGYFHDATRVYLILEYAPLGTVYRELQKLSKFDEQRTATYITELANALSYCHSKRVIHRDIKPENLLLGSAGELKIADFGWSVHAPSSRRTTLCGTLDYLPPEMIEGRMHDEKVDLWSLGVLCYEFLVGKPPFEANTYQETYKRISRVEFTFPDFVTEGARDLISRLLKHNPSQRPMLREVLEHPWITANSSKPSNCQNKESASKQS

Aurora B = Aurora B (Homo sapiens, UniProt Q96GD4); conditions: cited from earlier work
Sequence of Aurora B (Q96GD4 whole entry): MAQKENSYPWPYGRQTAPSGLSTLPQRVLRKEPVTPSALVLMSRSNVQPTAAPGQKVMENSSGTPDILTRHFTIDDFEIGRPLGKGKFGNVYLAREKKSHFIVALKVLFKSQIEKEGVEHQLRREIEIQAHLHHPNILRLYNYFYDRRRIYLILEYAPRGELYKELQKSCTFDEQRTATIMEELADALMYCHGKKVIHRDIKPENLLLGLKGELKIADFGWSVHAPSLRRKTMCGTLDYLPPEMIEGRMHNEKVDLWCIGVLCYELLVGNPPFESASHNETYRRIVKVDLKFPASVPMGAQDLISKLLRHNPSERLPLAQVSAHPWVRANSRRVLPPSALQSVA

Aurora C = biological target: T2, Aurora C (Homo sapiens, UniProt Q9UQB9); conditions: cited from earlier work
T2 sequence (Q9UQB9 1-309): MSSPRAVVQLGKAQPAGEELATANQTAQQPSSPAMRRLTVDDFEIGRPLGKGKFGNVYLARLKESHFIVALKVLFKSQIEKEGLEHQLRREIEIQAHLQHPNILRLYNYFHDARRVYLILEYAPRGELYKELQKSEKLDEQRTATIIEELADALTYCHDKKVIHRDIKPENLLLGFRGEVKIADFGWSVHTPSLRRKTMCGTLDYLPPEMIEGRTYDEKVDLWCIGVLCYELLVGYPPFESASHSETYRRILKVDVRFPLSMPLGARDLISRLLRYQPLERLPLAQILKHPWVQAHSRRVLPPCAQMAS

FLT3 kinases = biological target: T3, FLT3 kinases (Homo sapiens, UniProt P36888); conditions: cited from earlier work
T3 sequence (P36888 27-993): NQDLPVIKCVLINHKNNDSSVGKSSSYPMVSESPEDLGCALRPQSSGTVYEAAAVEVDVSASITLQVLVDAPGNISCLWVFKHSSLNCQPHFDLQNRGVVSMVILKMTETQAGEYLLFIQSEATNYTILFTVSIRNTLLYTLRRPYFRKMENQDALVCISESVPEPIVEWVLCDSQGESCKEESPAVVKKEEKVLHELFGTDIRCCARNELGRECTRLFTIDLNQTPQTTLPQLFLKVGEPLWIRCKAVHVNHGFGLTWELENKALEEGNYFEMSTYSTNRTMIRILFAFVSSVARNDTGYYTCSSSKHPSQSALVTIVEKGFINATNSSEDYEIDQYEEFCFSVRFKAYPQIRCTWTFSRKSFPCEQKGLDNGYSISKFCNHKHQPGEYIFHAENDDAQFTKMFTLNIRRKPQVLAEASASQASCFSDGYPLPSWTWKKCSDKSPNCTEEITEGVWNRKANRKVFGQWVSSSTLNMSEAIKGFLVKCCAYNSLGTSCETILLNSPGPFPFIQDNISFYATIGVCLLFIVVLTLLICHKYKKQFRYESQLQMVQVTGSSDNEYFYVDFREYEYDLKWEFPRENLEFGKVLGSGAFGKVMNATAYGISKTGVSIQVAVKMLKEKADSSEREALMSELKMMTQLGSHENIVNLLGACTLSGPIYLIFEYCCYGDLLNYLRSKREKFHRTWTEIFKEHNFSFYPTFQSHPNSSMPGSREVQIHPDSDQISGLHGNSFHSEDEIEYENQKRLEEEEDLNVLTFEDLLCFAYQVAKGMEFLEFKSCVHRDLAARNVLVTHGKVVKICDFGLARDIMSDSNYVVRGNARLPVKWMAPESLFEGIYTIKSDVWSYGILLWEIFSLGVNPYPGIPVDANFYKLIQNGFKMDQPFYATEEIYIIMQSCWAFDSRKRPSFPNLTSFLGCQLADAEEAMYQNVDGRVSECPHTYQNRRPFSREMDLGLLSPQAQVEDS

cytochrome P450 = conditions: cited from earlier work
hERG = hERG (Homo sapiens, UniProt Q12809); conditions: cited from earlier work
Sequence of hERG (Q12809 whole entry): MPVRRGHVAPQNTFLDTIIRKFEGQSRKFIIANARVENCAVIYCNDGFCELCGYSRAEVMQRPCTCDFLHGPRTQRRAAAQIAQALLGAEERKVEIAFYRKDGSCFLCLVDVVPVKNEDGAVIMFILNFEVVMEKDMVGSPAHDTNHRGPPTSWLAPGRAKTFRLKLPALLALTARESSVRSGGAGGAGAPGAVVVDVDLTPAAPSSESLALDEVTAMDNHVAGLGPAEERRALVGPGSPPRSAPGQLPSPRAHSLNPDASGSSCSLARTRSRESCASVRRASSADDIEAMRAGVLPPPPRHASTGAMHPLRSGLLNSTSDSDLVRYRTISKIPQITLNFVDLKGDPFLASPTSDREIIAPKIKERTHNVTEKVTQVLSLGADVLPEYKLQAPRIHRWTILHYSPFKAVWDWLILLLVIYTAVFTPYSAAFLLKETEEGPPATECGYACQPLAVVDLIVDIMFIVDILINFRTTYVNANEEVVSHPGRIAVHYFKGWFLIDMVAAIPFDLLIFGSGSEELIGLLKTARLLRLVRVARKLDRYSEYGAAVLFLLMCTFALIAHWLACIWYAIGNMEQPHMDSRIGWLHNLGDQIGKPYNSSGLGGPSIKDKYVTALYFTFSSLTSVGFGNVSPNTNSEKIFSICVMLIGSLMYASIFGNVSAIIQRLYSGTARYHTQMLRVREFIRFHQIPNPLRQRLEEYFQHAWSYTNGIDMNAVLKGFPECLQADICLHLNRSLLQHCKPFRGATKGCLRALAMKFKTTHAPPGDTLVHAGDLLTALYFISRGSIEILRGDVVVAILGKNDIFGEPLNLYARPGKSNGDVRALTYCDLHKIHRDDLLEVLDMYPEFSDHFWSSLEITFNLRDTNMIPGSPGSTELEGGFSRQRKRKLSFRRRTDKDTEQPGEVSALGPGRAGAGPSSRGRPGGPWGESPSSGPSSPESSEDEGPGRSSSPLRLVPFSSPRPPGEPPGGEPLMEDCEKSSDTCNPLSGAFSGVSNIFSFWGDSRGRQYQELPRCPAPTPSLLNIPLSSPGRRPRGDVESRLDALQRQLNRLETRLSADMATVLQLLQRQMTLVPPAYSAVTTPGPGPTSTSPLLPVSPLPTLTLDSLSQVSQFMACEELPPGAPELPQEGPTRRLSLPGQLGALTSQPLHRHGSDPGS

- solubility at 40 min ([1]; Capryol 90 (non-ionic surfactant), oil or lipid, in Capryol 90 (fatty acid ester)): < 4600 µg/mL
- solubility at 40 min ([1]; Capryol PC MG (non-ionic surfactant), oil or lipid, in Capryol PC MG (fatty acid ester)): < 3600 µg/mL
- solubility at 40 min ([1]; Cremophor EL (non-ionic surfactant), organic solvent or mixture, in Cremophor EL (glycerol derivative)): < 4900 µg/mL
- solubility at 40 min ([1]; Cremophor RH40 (non-ionic surfactant), organic solvent or mixture, in Cremophor RH40 (glycerol derivative)): < 4400 µg/mL
- solubility at 40 min ([1]; Gelucire 44/14 (non-ionic surfactant), organic solvent or mixture, in Gelucire 44/14 (fatty acid ester/glycerol derivative)): < 3500 µg/mL
- solubility at 40 min ([1]; Gelucire 50/13 (non-ionic surfactant), organic solvent or mixture, in Gelucire 50/13 (fatty acid ester/glycerol derivative)): < 2700 µg/mL
- solubility at 40 min ([1]; Kollisolv P124 (non-ionic surfactant), organic solvent or mixture, in Kollisolv P124 (co-polymer)): < 4500 µg/mL
- solubility at 40 min ([1]; Labrafac PC (non-ionic surfactant), oil or lipid, in Labrafac PC (fatty acid ester)): < 2100 µg/mL
- solubility at 40 min ([1]; Labrafil 1944 (non-ionic surfactant), oil or lipid, in Labrafil 1944 (glycerol derivative)): < 5000 µg/mL
- solubility at 40 min ([1]; Labrafil 2125 (non-ionic surfactant), oil or lipid, in Labrafil 2125 (glycerol derivative)): < 5500 µg/mL
- solubility at 40 min ([1]; Labrasol ALF (non-ionic surfactant), organic solvent or mixture, in Labrasol ALF (glycerol derivative)): < 3500 µg/mL
- solubility at 40 min ([1]; Miglyol 812N (non-ionic surfactant), oil or lipid, in Miglyol 812N (glycerol derivative)): < 3200 µg/mL
- solubility at 40 min ([1]; Softisan 378 (non-ionic surfactant), oil or lipid, in Softisan 378 (glycerol derivative)): < 4300 µg/mL
- solubility at 40 min ([1]; Tween 80 (non-ionic surfactant), organic solvent or mixture, in Tween 80 (sorbitan derivative), ~3 mg monofumarate, up to 1 ml, vortexed, sonicated, 45° C. 40 min): < 3700 µg/mL
- solubility at 40 min ([1]; Vitamin E TPGS (non-ionic surfactant), organic solvent or mixture, in Vitamin E TPGS (vitamin E derivative)): < 3200 µg/mL
- stability compared with other pharmaceutically acceptable salts [3]: greater stability
SMILES: Cc1nn(C)cc1-c1nc2c(N3CCN(Cc4ccc(Cl)cc4)CC3)c(Cl)cnc2[nH]1.O=C(O)/C=C/C(=O)O [compound of Formula (1) fumarate, 6-chloro-7-(4-(4-chlorobenzyl)piperazin-1-yl)-2-(1,3-dimethyl-1H-pyrazol-4-yl)-3H-imidazo[4,5-b]pyridine fumarate]
- aqueous solubility compared with free base [2]: higher aqueous solubility than the free base

- time the suspension remained stable ([4]; 20% w/v aqueous Gelucire 44/14, 1.5 mg/mL): at least 10 days
- time the suspension remained stable ([4]; 20% w/v aqueous Poloxamer P124, 1.5 mg/mL): at least 10 days
- solubility ([4]; 20% w/v aqueous TPGS solution, 20% w/v aqueous TPGS, 100 μL DMSO solution added to 900 μL excipient solution, read-out: concentration solubilised (clear solution) in the aqueous vehicle): 1500 µg/mL
- time the solution remained clear ([4]; 20% w/v aqueous TPGS, 1.5 mg/mL): up to 5 hours
- solubility ([4]; 20% w/v aqueous Cremophor EL, Cremophor RH 40, Labrasol ALF, Solutol HS15, Poloxamer P124, TPGS, Gelucire 44/14, read-out: concentration solubilised by any tested excipient): ≤ 1500 µg/mL
SMILES: Cc1nn(C)cc1-c1nc2c(N3CCN(Cc4ccc(Cl)cc4)CC3)c(Cl)cnc2[nH]1 [compound of Formula (1), 6-chloro-7-(4-(4-chlorobenzyl)piperazin-1-yl)-2-(1,3-dimethyl-1H-pyrazol-4-yl)-3H-imidazo[4,5-b]pyridine]
- activity against Aurora A (Aurora A): high activity
- activity against Aurora B (Aurora B): high activity
- activity against Aurora C (Aurora C): high activity
- activity against FLT3 kinases (FLT3 kinases): high activity
- interaction with cytochrome P450 activity (cytochrome P450): minimal interaction
- interaction with hERG (hERG): minimal interaction
